US5608093A, “Corticosteroid 17-alkyl carbonate 21-[0]-carboxylic and carbonic esters, and pharmaceuticals containing these compounds” (Hoechst Aktiengesellschaft, priority 1993, dated 1997)

Key:
carrageenan paw edema = assay: Systemic antiinflammatory effect following subcutaneous administration: carrageenan paw edema in rats; type: in vivo, rat (male Sprague-Dawley); conditions: for Increase in volume (ml) (x ± s), paw: 6 h after carrageenan
Procedure: 2 a) Examining for systemic antiinflammatory effect in the "antiinflammatory effect following subcutaneous administration: carrageenan paw edema in rats" test.
The carrageenan paw edema test in rats in accordance with the method described by Winter et al. Proc. Soc. Exp. Biol. (New York) Volume 111, p. 544 (1962) was chosen as the test for the acute systemic antiinflammatory effect. Male Sprague-Dawley rats of about 120 g in weight were given the substances to be tested s.c. (0.2 ml/100 g) dissolved in sesame oil. 30 min later, 0.1 ml of a 0.5% carrageenan solution was injected into the left hind paw. 6 h later, the degree of swelling was measured volumetrically. Controls were only given sesame oil.
The paw volumes are given in ml, x±s. In this case too, the antiinflammatory effect is characterized by giving the dose in mg/kg required for approximately 50% inhibition.

[1] = test system: croton oil (TPA) ear edema, rat ear; assay: Local antiinflammatory effect in rat croton oil ear edema following epicutaneous application; type: in vivo, rat (male Wistar); conditions: for Inhibition in % / x ± s (mg), ear disk weight difference (right treated minus left untreated): epicutaneous, 4 h; for Local antiinflammatory effect (in words): general statement; for Relative local antiinflammatory potency (Result): rat ear edema, in words
Procedure: (§1) 1. Local antiinflammatory effect in rat croton oil ear edema following epicutaneous application
(§2) We used the rat ear method of Tonelli et al.: male Wistar rats from our own colony and weighing about 50 g were treated epicutaneously on the right ear with the irritant or with irritant containing test substance. The left ear remained untreated. TPA (12-O-tetradecanoylphorbol 13-acetate, SIGMA P 8139) dissolved in acetone, 0.4 mg/ml, (of which 20 μl each on the inside and outside) was used for eliciting the inflammation. The corticoids under examination were dissolved in this solution in the given final concentrations. Controls only received the TPA/solvent mixture. The animals were sacrificed using CO2 4 h after the epicutaneous treatment. Disks measuring 8 mm in diameter were punched out of the right (treated) and the left (untreated) ears and weighed immediately. This difference, as the parameter for the degree of inflammation, was set at 100 in the controls (mg, x±s). The antiinflammatory effect is characterized by giving the dose in mg/ml which is required for approximately 50% inhibition: […]

[2] = Split (ratio) of local to systemic antiinflammatory effect / therapeutic advantage; type: in vivo, rat
Procedure: as §1, §2
The carrageenan paw edema test in rats in accordance with the method described by Winter et al. Proc. Soc. […] 6 h later, the degree of swelling was measured volumetrically. […]

[3] = test system: gluconeogenesis in rats (liver); assay: Systemic effect: gluconeogenesis in adrenalectomized rats; conditions: for Glycogen + glucose mg/100 g of liver / Liver glycogen: 6 h; for Effect on new formation of glucose and glycogen (in words): p 0.05, t test
Procedure: A sensitive method for detecting systemic effects on carbohydrate metabolism is to examine the gluconeogenic effect of corticosteroids in the adrenalectomized rat. Three days prior to the experiment, groups of in each case 6 rats are adrenalectomized under pentobarbital anesthesia and then provided with 0.9% sodium chloride solution as drinking fluid. Two days later, i.e. 24 hours before initiating the experiment, the feed is removed in order to reduce the glycogen stores in the liver.
On the day of the experiment, the preparations under examination are administered subcutaneously, dissolved in sesame oil (2 ml/kg). Six hours later, the animals are decapitated, and in each case the liver is removed and 1 g thereof is taken up in 5 ml of 0.6 molar perchloric acid. After homogenization, the free glucose is measured in the supernatant from the centrifugation, while the centrifugation sediment (centrifugate; glycogen) is cleaved enzymically with amyloglucosidase, after which the glucose content is also measured in this fraction (Hexokinase method, Boehringer Mannheim).

[4] = 3.0 mg/kg s.c., * p<0.05, Dunnett's test
[5] = 3 mg/kg s.c., * significant, t test

Row | Structure (SMILES) | Increase in volume (ml) (x ± s), paw (carrageenan paw edema; 0.3 mg/kg s.c.) [mL] | Increase in volume (ml) (x ± s), paw (carrageenan paw edema; [4]) [mL] | Inhibition in % ([1]; 0.03 mg/ml) [%] | x ± s (mg), ear disk weight difference (right treated minus left untreated) ([1]; 0.03 mg/ml) [mg] | Inhibition in % ([1]; 0.1 mg/ml) [%] | x ± s (mg), ear disk weight difference (right treated minus left untreated) ([1]; 0.1 mg/ml) [mg] | Inhibition in % ([1]; 0.3 mg/ml) [%] | x ± s (mg), ear disk weight difference (right treated minus left untreated) ([1]; 0.3 mg/ml) [mg] | Local antiinflammatory effect (in words) [1] | Relative local antiinflammatory potency (Result) [1] | Split / ratio of local to systemic antiinflammatory effect (in words) [2] | Glycogen + glucose mg/100 g of liver ([3]; 0.3 mg/kg s.c.) | Liver glycogen ([3]; 0.3 mg/kg s.c.) | Glycogen + glucose mg/100 g of liver [3, 5] | Liver glycogen [3, 5] | Effect on new formation of glucose and glycogen (in words) ([3]; 3 mg/kg s.c.) | Systemic effect in paw edema compared with the test compounds (in words) (carrageenan paw edema; significant only after 3 mg/kg, s.c.) | Inhibition in % ([1]; 1 mg/ml) [%] | x ± s (mg), ear disk weight difference (right treated minus left untreated) ([1]; 1 mg/ml) [mg]
1 | CCOC(=O)O[C@]1(C(=O)COC(=O)Cc2ccccc2)CC[C@H]2[C@@H]3CCC4=CC(=O)C=C[C@]4(C)[C@H]3[C@@H](O)C[C@@]21C [Compound I, Prednisolone 17-ethyl carbonate 21-phenylacetate] | 0.34 ± 0.12 | 0.19 ± 0.9 | 33 | 10 ± 3.0 | 67 | 5 ± 1.1 | 80 | 3 ± 2.3 | strong local antiinflammatory effect | approximately three times more powerful than prednicarbate | strikingly favorable split to weak systemic activity | 11.3 ± 2.0 mg/100 g of liver | 0.5 ± 0.7 | 25.9 ± 13 mg/100 g of liver | 2.4 ± 2.4 | do not have any significant effect at 3 mg/kg | – | – | –
2 | CCOC(=O)O[C@]1(C(=O)COC(=O)CC)CC[C@H]2[C@@H]3CCC4=CC(=O)C=C[C@]4(C)[C@H]3[C@@H](O)C[C@@]21C [Prednicarbate, prednisolone 17-ethyl carbonate 21-propionate, reference compound] | – | – | – | – | – | – | – | – | – | – | – | – | – | – | – | – | corresponds to the behavior of prednicarbate | 80 | 3 ± 1.7
3 | CCOC(=O)O[C@]1(C(=O)COC(=O)Cc2ccccc2)[C@@H](C)C[C@H]2[C@@H]3CCC4=CC(=O)C=C[C@]4(C)[C@@]3(F)[C@@H](O)C[C@@]21C [Compound II, Betamethasone 17-ethyl carbonate 21-phenyl acetate] | 0.33 ± 0.12 | 0.19 ± 0.9 | – | – | 66 | 5.1 ± 3.3 | 70 | 4.5 ± 3.1 | strong local antiinflammatory effect | corresponding effect to that of compound I | strikingly favorable split to weak systemic activity | 23.6 ± 6.8 mg/100 g of liver | 2.8 ± 1.4 | 37.9 ± 30 mg/100 g of liver | 7.4 ± 10 | do not have any significant effect at 3 mg/kg | – | – | –
